The source made the active and inactive calls. No cut-off for these calls is given here.
Experiments:
[1] = target: T1, Serine/threonine-protein kinase pim-1 (Homo sapiens, UniProt P11309); assay: Inhibition of human recombinant Pim1 expressed in insect cells at 100 uM
Target sequence in this assay (P11309 whole entry, looked up): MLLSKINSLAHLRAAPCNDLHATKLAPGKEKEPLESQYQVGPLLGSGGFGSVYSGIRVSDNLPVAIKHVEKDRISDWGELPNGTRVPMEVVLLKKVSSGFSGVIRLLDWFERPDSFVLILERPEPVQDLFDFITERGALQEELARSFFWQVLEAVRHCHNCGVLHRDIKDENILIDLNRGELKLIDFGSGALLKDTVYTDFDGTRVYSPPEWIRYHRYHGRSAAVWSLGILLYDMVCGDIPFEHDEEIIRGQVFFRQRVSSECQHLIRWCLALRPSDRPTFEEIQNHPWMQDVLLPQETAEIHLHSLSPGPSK

[2] = target: T1, Serine/threonine-protein kinase pim-1; assay: Inhibition of recombinant Pim1 by scintillation counter
Target sequence in this assay (P11309 whole entry, looked up): as above

[3] = target: T1, Serine/threonine-protein kinase pim-1; assay: Inhibition of recombinant Pim1 with increasing concentration of ATP
Target sequence in this assay (P11309 whole entry, looked up): as above

[4] = target: T1, Serine/threonine-protein kinase pim-1; assay: Inhibition of human recombinant Pim1 expressed in insect cells by HTRF
Target sequence in this assay (P11309 whole entry): as the sequence (P11309 whole entry, looked up) above

LNCaP [5] = assay: Antiproliferative activity against human LNCAP cells assessed as reduction in cell number after 72 hrs; type: functional, cell-based
PC-3 [6] = assay: Cell cycle arrest in human PC3 cells assessed as accumulation at G1 phase at 10 uM after 72 hrs by cytofluorimetric assay; type: functional
PC-3 [7] = assay: Cell cycle arrest in human PC3 cells assessed as accumulation at G2 phase at 10 uM after 72 hrs by cytofluorimetric assay; type: functional
PC-3 [8] = assay: Cell cycle arrest in human PC3 cells assessed as accumulation at S phase at 10 uM after 72 hrs by cytofluorimetric assay; type: functional
LNCaP [9] = assay: Cell cycle arrest in human LNCAP cells assessed as accumulation at G1 phase at 10 uM after 72 hrs by cytofluorimetric assay; type: functional
LNCaP [10] = assay: Cell cycle arrest in human LNCAP cells assessed as accumulation at G2 phase at 10 uM after 72 hrs by cytofluorimetric assay; type: functional
LNCaP [11] = assay: Cell cycle arrest in human LNCAP cells assessed as accumulation at S phase at 10 uM after 72 hrs by cytofluorimetric assay; type: functional
PC-3 [12] = assay: Antiproliferative activity against human PC3 cells assessed as reduction in cell number after 72 hrs; type: functional, cell-based; conditions: PC-3, 72 h

Structure (SMILES)	inhibition [1] [%]	ID50 [2] [µM]	Activity [3]	Ki [4] [µM]	further results
CC(=O)Nc1ccc(-c2csc(-c3c[nH]c4ccccc34)n2)cc1	1	–	–	–	–
COc1cc(C2C(C(C)=O)=C(O)C(=O)N2CCc2c[nH]c3ccccc23)ccc1O (stereo unspecified)	90	9.5	Active	4.5	–
C/C(=C/c1sc2ccccc2[n+]1CCO)C/C=C1/Sc2ccccc2N1CCO	-4	–	–	–	–
CC(Cc1ccccc1)NC(=O)C(c1ccc(N)cc1)c1ccc(N)cc1 (stereo unspecified)	-7	–	–	–	–
CN(C)CCCn1cc(C2=C(c3cn(C)c4ccccc34)C(=O)NC2=O)c2ccccc21	–	–	–	–	IC50 [4]: 0.15 µM
O/N=C/c1ccccc1OCC(O)Cn1c2ccccc2c2ccccc21 (stereo unspecified)	75	–	–	–	IC50 [4]: 16 µM
CN1C2C=C(N(CCc3c[nH]c4ccccc34)C(=O)c3ccc(Cl)cc3)CCC1CC2 (stereo unspecified)	30	–	–	–	IC50 [4]: 2.1 µM

More lines, main results first:

inhibition [1] [%]	ID50 [2] [µM]	Activity [3]	Ki [4] [µM]	Structure (SMILES)	further results
57	13	Active	–	COC(=O)c1ccc(C2C(C(C)=O)=C(O)C(=O)N2CCc2c[nH]c3ccccc23)cc1 (stereo unspecified)	–
71	12	Active	4.2	CCOc1ccc(C2C(C(C)=O)=C(O)C(=O)N2CCc2c[nH]c3ccccc23)cc1 (stereo unspecified)	–
84	19	Active	–	CC(=O)C1=C(O)C(=O)N(CCc2c[nH]c3ccccc23)C1c1cccc(O)c1 (stereo unspecified)	–
54	10	Active	–	CC(=O)C1=C(O)C(=O)N(CCc2c[nH]c3ccccc23)C1c1ccc(C)cc1 (stereo unspecified)	–
79	4.5	Active	2.1	CCc1ccc(C2C(C(C)=O)=C(O)C(=O)N2CCc2c[nH]c3ccccc23)cc1 (stereo unspecified)	IC50 (LNCaP [5]): 10.6 µM; Activity (PC-3 [6]): 64.24%; Activity (PC-3 [7]): 14.94%; Activity (PC-3 [8]): 20.81%; Activity (LNCaP [9]): 39.47%; Activity (LNCaP [10]): 25.61%; Activity (LNCaP [11]): 34.92%; IC50 (PC-3 [12]): 10.1 µM
92	5.2	Active	2.2	CC(=O)C1=C(O)C(=O)N(CCc2c[nH]c3ccccc23)C1c1ccc(O)cc1 (stereo unspecified)	–
